Article PMC9965520, “An Efficient Peptidomics Screening for Exogenous Substrates and Inhibitory Peptides of the Dipeptidase ACE from Milk Hydrolysate” (Pharmaceutics, 2023)
No end group written: not given here.

target: T1, ACE (Oryctolagus cuniculus, UniProt P12822); assay: ACE pre-incubation of milk hydrolysate peptide libraries, stable-isotope dimethyl labeling and LC-MS/MS (D/H ratio); type: in vitro ADME, rabbit; parameters: ACE (EC 3.4.15.1, 1 unit) from rabbit lungs; purchased Sigma Chemical Co. (St. Louis, MO, USA); host or cells: rabbit lungs (tissue-derived enzyme); settings: milk hydrolysate peptide library (<3 kDa); ACE-treated (0.05 mU/μL ACE, borate buffer, 37 °C, 3 h: 1.5 h static + 1.5 h 200 rpm; D-labeled) versus untreated (H-labeled) peptide; intensity ratio in LC-MS; <1 = hydrolysed by ACE
T1 sequence (P12822 34-1310): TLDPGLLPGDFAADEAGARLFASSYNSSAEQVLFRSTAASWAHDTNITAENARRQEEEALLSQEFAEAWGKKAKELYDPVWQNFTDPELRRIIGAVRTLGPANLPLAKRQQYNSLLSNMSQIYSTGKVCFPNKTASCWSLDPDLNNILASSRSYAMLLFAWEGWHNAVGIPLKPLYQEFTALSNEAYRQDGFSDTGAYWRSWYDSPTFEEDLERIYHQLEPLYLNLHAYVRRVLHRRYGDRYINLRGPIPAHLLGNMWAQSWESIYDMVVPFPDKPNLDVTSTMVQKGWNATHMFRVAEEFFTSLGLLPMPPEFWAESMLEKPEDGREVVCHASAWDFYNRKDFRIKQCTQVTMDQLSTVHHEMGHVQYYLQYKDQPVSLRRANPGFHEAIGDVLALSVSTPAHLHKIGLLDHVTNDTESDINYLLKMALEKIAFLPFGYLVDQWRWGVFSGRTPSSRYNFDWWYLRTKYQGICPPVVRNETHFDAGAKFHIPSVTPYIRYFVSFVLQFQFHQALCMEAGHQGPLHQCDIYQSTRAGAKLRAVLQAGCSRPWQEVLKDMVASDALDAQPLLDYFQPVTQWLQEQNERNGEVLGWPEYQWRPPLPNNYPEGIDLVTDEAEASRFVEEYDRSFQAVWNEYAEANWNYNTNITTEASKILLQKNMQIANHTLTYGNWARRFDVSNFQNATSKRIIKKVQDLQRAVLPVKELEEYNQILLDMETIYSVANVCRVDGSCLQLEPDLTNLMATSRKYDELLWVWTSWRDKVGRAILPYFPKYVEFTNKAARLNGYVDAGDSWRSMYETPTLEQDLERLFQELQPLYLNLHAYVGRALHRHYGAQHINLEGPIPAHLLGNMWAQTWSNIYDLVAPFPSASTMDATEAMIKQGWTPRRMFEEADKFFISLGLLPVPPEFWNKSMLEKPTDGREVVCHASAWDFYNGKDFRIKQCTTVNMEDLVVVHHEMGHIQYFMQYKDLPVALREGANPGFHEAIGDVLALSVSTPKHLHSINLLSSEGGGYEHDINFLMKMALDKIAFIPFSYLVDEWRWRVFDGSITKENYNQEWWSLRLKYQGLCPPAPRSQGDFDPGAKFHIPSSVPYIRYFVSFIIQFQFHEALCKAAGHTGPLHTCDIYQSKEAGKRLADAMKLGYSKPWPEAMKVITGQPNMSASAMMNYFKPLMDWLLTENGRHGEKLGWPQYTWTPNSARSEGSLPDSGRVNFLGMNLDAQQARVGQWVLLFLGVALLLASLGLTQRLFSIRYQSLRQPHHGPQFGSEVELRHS
Method: The peptide libraries (200 μg) dissolved in borate buffer were equally divided into two parts, one was without any treatment (control group); the other part (experimental group) was incubated with 0.05 mU/μL ACE at 37℃ for 1.5 h statically, followed by gentle shaking at 200 rpm for another 1.5 h, and then the ACE reaction was quenched using 60 μL of 1N HCl. After lyophilization, both samples were redissolved in 100 μL of 0.1M sodium acetate and modified using stable-isotope dimethyl labeling according to the previous study with slight modifications. Briefly, the control group (without ACE incubation) had 4 μL of formaldehyde (37% solution in H2O) and 1 M NaBH3CN (10 μL) added to it; the experimental group had 20% formaldehyde-d2 (8 μL) and 1M NaBH3CN (10 μL) added to it. After 1h, 5 μL of ammonia (28% solution in H2O) were added individually to both groups to stop the reaction. The experimental group and the control group were combined and desalted using the PepClean™C18 spin column. The resulting peptide mixture was lyophilized and kept at −20 °C prior to LC-MS/MS analysis. Formaldehyde is known to the state of California to cause cancer; special caution was taken including the use of surgical gloves and a fume hood when formaldehyde was handled.
The combined mixture re-dissolved in 5% ACN containing 0.1% formic acid was separated using an Ultimate 3000 RSLC system (Dionex, Sunnyvale, CA, USA) coupled with a C18 column (Acclaim PepMap RSLC, 75 μm × 150 mm, Thermo Scientific, Waltham, Middlesex, MA, USA) and analyzed with a Thermo Q-ExactiveTM mass spectrometer (Thermo Scientific Inc., Waltham, Middlesex, MA, USA). The elution solution was composed of mobile phase A (0.1% formic acid in water) and B (0.1% formic acid in 95% acetonitrile). The elution gradient was arranged as follows: (i) isocratic elution using 1% B in the first 5.5 min for sample loading, (ii) linear gradient from 1% to 60% B in the next 39.5 min, (iii) linear gradient from 60% to 80% B in the following 10 min, and finally (iv) isocratic elution using 1% solution B for 10 min. The flow rate applied in the LC separation was maintained at 250 µL/min. The separated peptides were analyzed and quantified using Q-ExactiveTM mass spectrometry which was operated in the data-dependent mode and switched automatically between MS and HCD-MS2. A full MS scan was carried out in a 100 and 1500 m/z range, and the 14 ions of the highest intensities were selected for MS/MS scans. The RAW data were converted to the MGF file format followed by database-assisted sequencing with PEAKS DB using PEAKS Studio X (Bioinformatics Solutions Inc., Waterloo, ON, Canada). The parameters used for peptide identification were listed as follows: (1) Database: UniProt_SwissProt (Bos taurus); (2) Enzyme: pepsin, trypsin, α-chymotrypsin, or GI (the combination of these three proteases); (3) Type of enzyme: Unspecific; (4) Instrument: Orbitrap; (5) Parent mass error tolerance: 20 ppm; (6) Fragment mass error tolerance: 0.6 Da; (7) Variable modifications: Dimethyl (K), Dimethyl (N-term), Dimethyl:2H(4) (K), and Dimethyl:2H(4) (N-term) were used for identification and quantitative analysis. The sequence identified through the database was validated by manually matching with the MS/MS spectrum in the raw data. In addition to MS/MS analysis coupled with PEAKS studio, the ACE’s substrate candidates were further confirmed using the synthetic peptides with corresponding sequences by comparison with their LC retention times, m/z values, and MS/MS spectra. The relative abundances of hydrogen (H) and deuterium (D) labeled peptides were quantified based on the peak areas in their corresponding selective ion chromatograms (SIC). The D/H ratio of identified peptide with the same sequence was further examined by their relative signal intensities in MS spectrum. Theoretically, the D/H ratio of the isobaric pair should stay at 1 if the peptide will not react with ACE. […]

| Substance | D/H Ratio |
| --- | --- |
| ALNEINQFY [ALNEINQFY] | 0.84 |
| ALPMHIR [ALPMHIR] | 0.15 |
| AVPYPQR [AVPYPQR] | 0.44 |
| DMPIQAF [DMPIQAF] | 0.55 |
| DMPIQAFL [DMPIQAFL] | 0.59 |
| FALPQYLK [FALPQYLK] | 0.94 |
| FPQYLQY [FPQYLQY] | 0.12 |
| HPHPHLSF [HPHPHLSF] | 0.15 |
| HQGLPQEVLNENLLR [HQGLPQEVLNENLLR] | 0.76 |
| HQPHQPLPPTVM [HQPHQPLPPTVM] | 0.40 |
| INNQFLPYPYY [INNQFLPYPYY] | 0.33 |
| IPPLTQT [IPPLTQT] | 0.47 |
| KVIPYVRY [KVIPYVRY] | 0.66 |
| LRPVAAEIY [LRPVAAEIY] | 0.65 |
| MFPPQSVL [MFPPQSVL] | 0.21 |
| NAVPITPTLNR [NAVPITPTLNR] | 0.61 |
| QLDAYPSGAW [QLDAYPSGAW] | 0.47 |
| QVSLNSGY [QVSLNSGY] | 0.56 |
| SAYPGQITSN [SAYPGQITSN] | 0.65 |
| SIVHPSY [SIVHPSY] | 0.18 |
| SRYPSYGLN [SRYPSYGLN] | 0.81 |
| TTMPLW [TTMPLW] | 0.15 |
| VAPFPEVFG [VAPFPEVFG] | 0.83 |
| VVPPFLQPEVM [VVPPFLQPEVM] | 0.80 |
| YPVEPFTESQSL [YPVEPFTESQSL] | 0.76 |

system: ACE; assay: not given; settings: 3 h of incubation with ACE; ref 21 (Forghani et al.); cited from earlier work
Method: To investigate the sequence conservation of the exogenous substrates, the identified substrates listed on Table 1 were analyzed using Weblogo (https://weblogo.berkeley.edu/). WebLogo is the software designed to analyze the frequency of residues that appeared at various positions in a sequence library. The font size of each letter (residue) represents the frequency appearance of each residue at a certain position. The order from the most frequent to the least frequent is arranged from the top to the bottom for each residue. The chemical properties of amino acid residues are classified by ...

| Substance | peptide loss on incubation with ACE [%] |
| --- | --- |
| CRQNTLGHNTQTSIAQ | 7 |

target: T1, ACE; assay: ACE hydrolysis of synthetic substrate candidates monitored by LC-MS at different incubation times; type: in vitro ADME, rabbit; parameters: ACE (EC 3.4.15.1, 1 unit) from rabbit lungs; purchased Sigma Chemical Co. (St. Louis, MO, USA); host or cells: rabbit lungs (tissue-derived enzyme); settings: synthetic peptide incubated with ACE, 37 °C, 3 h, LC-MS/MS
Method: To confirm the reactivity of the identified peptide candidates towards ACE, the synthetic peptides were individually mixed with ACE and incubated at 37 °C for 3 h. The remaining peptide substrate and the resulting product were analyzed using LC-MS/MS. Meanwhile, the degradation rate of each peptide was monitored every 30 min using LC-MS. The percentage of the remaining substrate (RS%) at each time point was calculated as As/(As + Ap) 100%. In which, As is the selective ion chromatogram (SIC) peak area of remaining substrate and Ap is the peak area of the resulting product. The RS% was further compared with the D/H ratio obtained in Section 2.4.

| Substance | Hydrolysis of synthetic peptide by ACE (result in words) |
| --- | --- |
| IASGEPTSTPTTE [IE-13] | avoid ACE’s hydrolysis |
| LVYPFPGPIHN [LVYPFPGPIHN] | retard the second cleavage |
| LVYPFPGPLHNSL [LVYPFPGPLHNSL] | readily hydrolyzed by ACE |
| LYQGPIVL [LYQGPIVL] | survive from ACE’s hydrolysis |
| NIPPLTQTPV [NV-10] | avoid ACE’s hydrolysis |
| VRSPAQILQ [VRSPAQILQ] | survive from ACE’s hydrolysis |

target: T1, ACE; assay: not given; settings: pH 8.3

| Substance | Hydrolysis of Ang-I by ACE without exogenous substrates |
| --- | --- |
| DRVYIHPFHL [Ang-I, angiotensin I, reference compound] | hydrolyzed almost completely |
